Test results as given in patent publication US12391692B2, “Spiro ring-containing quinazoline compound” (WIGEN BIOMEDICINE TECHNOLOGY (SHANGHAI) CO., LTD., priority 2020, dated 2025).

Tests used:
[1] = test system: pERK level in H358 cells; assay: pERK and ERK protein content assay in H358 cells (ELISA); format: cell-based; conditions: Homo sapiens, NCI-H358, pERK/ERK ratio vs DMSO group, compound 1 μM, 24 h, read-out: Inhibition rate (%)
Procedure, shortened: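 Percent inhibition of pERK relative to DMSO, from the ELISA pERK/ERK ratio in lysed H358 cells. Compound applied at 1 μM for 24 h after one day of growth.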

[2] = test system: H358 cells; assay: Antiproliferative activity against H358 cells (Cell Titer Glow, ultra-low attachment plate); format: cell-based; conditions: Homo sapiens, NCI-H358, 72 h, three days after addition of compound
Description: 2500 H358 cells were seeded in a 96-well ultra-low attachment plate (corning, 7007). After one day of growth, a serially diluted compound (a maximum concentration of 5 μM, 5-fold dilution, a total of five doses) was added. Three days after the addition of the compound, Cell Titer Glow (Promega, G9681) was added to evaluate pellet growth, and the IC50 value was calculated.

[3] = test system: human pancreatic cancer Mia PaCa-2 xenograft tumors; assay: Antitumor activity in mice, Mia PaCa-2 xenograft; format: in vivo; conditions: Mia PaCa-2 xenograft in nude mice; for Anti-tumor effect (regression): 10 mg/kg, qd*21, intragastric; for in vivo activity compared with control drug B: 10 mg/kg/day, 21 days
Description: Human pancreatic cancer Mia PaCa-2 cells were cultured conventionally in 1640 medium containing 10% fetal bovine serum in a 37° C./5% CO2 incubator. After being subcultured, the cells were collected when they reached the desired amount. 1×10^7 Mia PaCa-2 cells were injected into the left dorsal side of each nude mouse, and the animals were randomly grouped for administration after tumors grew to 150 mm^3. The groups were as follows: 1) solvent control group, 8 mice; 2) compound 6 group, compound 14 group, compound 28 group, compound 44 group, compound 60 group, compound 103 group and control drug B (Example 35 in WO2018/143315), 8 mice in each group. The mice in the solvent control group was intragastrically administered with 0.5% CMC-Na once a day; and the mice in the compound groups were intragastrically administered with 0.5% CMC-Na suspension once a day. On Tuesday and Thursday each week, tumor volumes and body weight of the mice were measured, and the nude mice were sacrificed on day 21 during the treatment period.

IC50 [2] [nM]	Structure (SMILES)	inhibition at 1 µM [1] [%]	Anti-tumor effect (regression) [3] [% regression]	in vivo activity compared with control drug B [3]
300 to 1000	C=CC(=O)N1CC2(CCN(c3nc(O[C@H]4C[C@H](N5CCC5)C4)nc4c(OCC(F)(F)F)c(-c5c(C)ccc6[nH]ncc56)c(C5CC5)cc34)CC2)C1 [Compound 88]	50 to 90	–	–
< 300	C=CC(=O)N1CC2(CCN(c3nc(O[C@H]4C[C@@H](N(C)C)C4)nc4c(OCC(F)(F)F)c(-c5c(C)ccc6[nH]ncc56)c(C5CC5)cc34)CC2)C1 [Compound 85]	> 90	–	–
< 300	C=CC(=O)N1CC2(CCN(c3nc(N4CC5(CC(O)CN5CC)C4)nc4c(OCC(F)(F)F)c(-c5c(C)ccc6[nH]ncc56)c(C5CC5)cc34)CC2)C1 (stereo not drawn) [Compound 122]	> 90	–	–
300 to 1000	C=CC(=O)N1CC2(CCN(c3nc(O[C@H]4C[C@H](N5CC6(CC6)C5)C4)nc4c(OCC(F)(F)F)c(-c5c(C)ccc6[nH]ncc56)c(C5CC5)cc34)CC2)C1 [Compound 94]	50 to 90	–	–
< 300	C=CC(=O)N1CC2(C1)CN(c1nc(N3CC(N4CC5(CC5)C4)C3)nc3c(OCC(F)(F)F)c(-c4c(C)ccc5[nH]ncc45)c(C4CC4)cc13)C2 [Compound 101]	> 90	–	–
< 300	C=CC(=O)N1CC2(CCN(c3nc(N4CC5(CCCN5C)C4)nc4c(OCC(F)(F)F)c(-c5c(C)ccc6[nH]ncc56)c(C=C)cc34)CC2)C1 [Compound 131]	> 90	–	–
300 to 1000	C=CC(=O)N1CC2(CCN(c3nc(N4CCOC5(CN(CCOC)C5)C4)nc4c(OCC(F)(F)F)c(-c5c(C)ccc6[nH]ncc56)c(C5CC5)cc34)CC2)C1 [Compound 84]	50 to 90	–	–
< 300	C=CC(=O)N1CC2(CCN(c3nc(N4CC5(C=CCN5C)C4)nc4c(OCC(F)(F)F)c(-c5c(C)ccc6[nH]ncc56)c(C5CC5)cc34)CC2)C1 [Compound 127]	> 90	–	–
< 300	C=CC(=O)N1CC2(CCN(c3nc(N4CC5(CC(=C)CN5CC)C4)nc4c(OCC(F)(F)F)c(-c5c(C)ccc6[nH]ncc56)c(C5CC5)cc34)CC2)C1 [Compound 126]	> 90	–	–
< 300	C=CC(=O)N1CC2(CCN(c3nc(N4CC(N5CCC6(CC6)C5)C4)nc4c(OCC(F)(F)F)c(-c5c(C)ccc6[nH]ncc56)c(CC)cc34)CC2)C1 [Compound 114]	> 90	–	–
< 300	C=CC(=O)N1CC2(CCN(c3nc(N4CC(N5CC6(CC6)C5)C4)nc4c(OCC(F)(F)F)c(-c5c(C)c(C)cc6[nH]ncc56)c(C5CC5)cc34)CC2)C1 [Compound 105]	> 90	–	–
300 to 1000	C=CC(=O)N1CC2(CCN(c3nc(N4CCC5(CCCN5CCOC)CC4)nc4c(OCC(F)(F)F)c(-c5c(C)ccc6[nH]ncc56)c(C5CC5)cc34)CC2)C1 [Compound 80]	50 to 90	–	–

The next lines start with the molecule.

Structure (SMILES)	IC50 [2] [nM]	inhibition at 1 µM [1] [%]	Anti-tumor effect (regression) [3] [% regression]	in vivo activity compared with control drug B [3]
C=CC(=O)N1CC2(CCN(c3nc(N4CC(N5CC6(CC6)C5)C4)nc4c(OCC(F)(F)F)c(-c5c(C)ccc6[nH]ncc56)c(C5CC5)cc34)CC2)C1 [Compound 28]	< 300	> 90	42	stronger in vivo activity than the control drug B
C=CC(=O)N1CC2(CCN(c3nc(N4CC(N5CC(O)C5)C4)nc4c(OCC(F)(F)F)c(-c5c(C)ccc6[nH]ncc56)c(C5CC5)cc34)CC2)C1 [Compound 44]	< 300	> 90	23	–
C=CC(=O)N1CC2(CCN(c3nc(N4CC(CN5CCC5)C4)nc4c(OCC(F)(F)F)c(-c5c(C)ccc6[nH]ncc56)c(C5CC5)cc34)CC2)C1 [Compound 6]	< 300	> 90	35	stronger in vivo activity than the control drug B
C=CC(=O)N1CC2(CCN(c3nc(N4CC(N(CC)CCCO)C4)nc4c(OCC(F)(F)F)c(-c5c(C)ccc6[nH]ncc56)c(C5CC5)cc34)CC2)C1 [Compound 24]	< 300	> 90	–	–
C=CC(=O)N1CC2(CCN(c3nc(N4CC(OC5CN(C)C5)C4)nc4c(OCC(F)(F)F)c(-c5c(C)ccc6[nH]ncc56)c(C5CC5)cc34)CC2)C1 [Compound 14]	< 300	> 90	37	stronger in vivo activity than the control drug B
C=CC(=O)N1CC2(CCN(c3nc(N4CCC(N5CC6(CC6)C5)C4)nc4c(OCC(F)(F)F)c(-c5c(C)ccc6[nH]ncc56)c(C5CC5)cc34)CC2)C1 (stereo not drawn) [Compound 37]	< 300	> 90	–	–
C=CC(=O)N1CC2(CCN(c3nc(N4CC(C)(N5CCC5)C4)nc4c(OCC(F)(F)F)c(-c5c(C)ccc6[nH]ncc56)c(C5CC5)cc34)CC2)C1 [Compound 60]	< 300	> 90	30	stronger in vivo activity than the control drug B
C=CC(=O)N1CC2(CCN(c3nc(N4CC(COC)C4)nc4c(OCC(F)(F)F)c(-c5c(C)ccc6[nH]ncc56)c(C5CC5)cc34)CC2)C1 [Compound 9]	< 300	> 90	–	–
C=CC(=O)N1CC2(CCN(c3nc(N4CC(CC#N)(N(C)C)C4)nc4c(OCC(F)(F)F)c(-c5c(C)ccc6[nH]ncc56)c(C5CC5)cc34)CC2)C1 [Compound 51]	< 300	> 90	–	–
C=CC(=O)N1CC2(CCN(c3nc(N4CC(CC#N)(N5CCC5)C4)nc4c(OCC(F)(F)F)c(-c5c(C)ccc6[nH]ncc56)c(C5CC5)cc34)CC2)C1 [Compound 54]	< 300	> 90	–	–
C=CC(=O)N1CC2(CCN(c3nc(N4CCC(CC#N)(N5CCC5)CC4)nc4c(OCC(F)(F)F)c(-c5c(C)ccc6[nH]ncc56)c(C5CC5)cc34)CC2)C1 [Compound 58]	< 300	> 90	–	–
C=CC(=O)N1CC2(CCN(c3nc(N4CCC5(CCCN5C)CC4)nc4c(OCC(F)(F)F)c(-c5c(C)ccc6[nH]ncc56)c(C5CC5)cc34)CC2)C1 [Compound 79]	< 300	> 90	–	–
C=CC(=O)N1CC2(CCN(c3nc(N4CC(C)(N5CCCC5)C4)nc4c(OCC(F)(F)F)c(-c5c(C)ccc6[nH]ncc56)c(C5CC5)cc34)CC2)C1 [Compound 61]	< 300	> 90	–	–
C=CC(=O)N1CC2(CCN(c3nc(N4CC5(CCN5C5COC5)C4)nc4c(OCC(F)(F)F)c(-c5c(C)ccc6[nH]ncc56)c(C5CC5)cc34)CC2)C1 [Compound 71]	< 300	> 90	–	–
C=CC(=O)N1CC2(CCN(c3nc(N4CC(N5CC6(CN(C)C6)C5)C4)nc4c(OCC(F)(F)F)c(-c5c(C)ccc6[nH]ncc56)c(C5CC5)cc34)CC2)C1 [Compound 32]	< 300	> 90	–	–
C=CC(=O)N1CC2(CCN(c3nc(N4CC5(CC5)C4)nc4c(OCC(F)(F)F)c(-c5c(C)ccc6[nH]ncc56)c(C5CC5)cc34)CC2)C1 [Compound 65]	300 to 1000	50 to 90	–	–
C=CC(=O)N1CC2(CCN(c3nc(N4CCC5(CCN5CCOC)C4)nc4c(OCC(F)(F)F)c(-c5c(C)ccc6[nH]ncc56)c(C5CC5)cc34)CC2)C1 (stereo not drawn) [Compound 78]	< 300	> 90	–	–
C=CC(=O)N1CC2(CCN(c3nc(N4CC5(CCCCN5CCOC)C4)nc4c(OCC(F)(F)F)c(-c5c(C)ccc6[nH]ncc56)c(C5CC5)cc34)CC2)C1 [Compound 76]	< 300	> 90	–	–
C=CC(=O)N1CC2(CCN(c3nc(N4CC(C)(N(C)C)C4)nc4c(OCC(F)(F)F)c(-c5c(C)ccc6[nH]ncc56)c(C5CC5)cc34)CC2)C1 [Compound 59]	< 300	> 90	–	–
C=CC(=O)N1CC2(CCN(c3nc(N4CC5(CCN5CC5CC5)C4)nc4c(OCC(F)(F)F)c(-c5c(C)ccc6[nH]ncc56)c(C5CC5)cc34)CC2)C1 [Compound 69]	< 300	> 90	–	–
C=CC(=O)N1CC2(CCN(c3nc(N4CCC(OC5CN(C)C5)CC4)nc4c(OCC(F)(F)F)c(-c5c(C)ccc6[nH]ncc56)c(C5CC5)cc34)CC2)C1 [Compound 16]	< 300	> 90	–	–
C=CC(=O)N1CC2(CCN(c3nc(N4CC5(CCN5CCOC)C4)nc4c(OCC(F)(F)F)c(-c5c(C)ccc6[nH]ncc56)c(C5CC5)cc34)CC2)C1 [Compound 72]	< 300	> 90	–	–
C=CC(=O)N1CC2(CCN(c3nc(N4CC5(CCC5)C4)nc4c(OCC(F)(F)F)c(-c5c(C)ccc6[nH]ncc56)c(C5CC5)cc34)CC2)C1 [Compound 66]	300 to 1000	50 to 90	–	–
C=CC(=O)N1CC2(CCN(c3nc(N4CC(N5CCC6(CC5)CC6)C4)nc4c(OCC(F)(F)F)c(-c5c(C)ccc6[nH]ncc56)c(C5CC5)cc34)CC2)C1 [Compound 36]	300 to 1000	50 to 90	–	–
